Laboratory results published in the supplement of paper PMC10307832.

How the values were obtained:
Assay in all cases: relative viability (nuclei count vs DMSO), 5 days (fraction); higher = more cells survive
Ispinesib + Olaparib = compound: Cc1ccc(C(=O)N(CCCN)[C@@H](c2nc3cc(Cl)ccc3c(=O)n2Cc2ccccc2)C(C)C)cc1 [Ispinesib] + O=C(c1cc(Cc2n[nH]c(=O)c3ccccc23)ccc1F)N1CCN(C(=O)C2CC2)CC1 [Olaparib] (partner 8 µM)
Method in brief: (§1)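 Lung cancer cell lines in 1536-well plates got either a single drug or a fixed anchor-drug dose together with five library-drug doses (not always all listed) in √10 steps, by pin tool, on the day after seeding. Nuclei were counted after 5 days, and relative viability is the treated-to-vehicle ratio of nuclei counts. Values are medians of duplicate plates.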

Linsitinib + Bortezomib = compound: C[C@]1(O)C[C@@H](c2nc(-c3ccc4ccc(-c5ccccc5)nc4c3)c3c(N)nccn32)C1 [Linsitinib] + CC(C)C[C@H](NC(=O)[C@H](Cc1ccccc1)NC(=O)c1cnccn1)B(O)O [Bortezomib] (partner 0.002 µM)
Method in brief: as §1

Linsitinib + Pemetrexed = compound: C[C@]1(O)C[C@@H](c2nc(-c3ccc4ccc(-c5ccccc5)nc4c3)c3c(N)nccn32)C1 [Linsitinib] + Nc1nc2[nH]cc(CCc3ccc(C(=O)N[C@@H](CCC(=O)O)C(=O)O)cc3)c2c(=O)[nH]1 [Pemetrexed] (partner 0.2 µM)
Method in brief: as §1

Ispinesib + Crizotinib = compound: Cc1ccc(C(=O)N(CCCN)[C@@H](c2nc3cc(Cl)ccc3c(=O)n2Cc2ccccc2)C(C)C)cc1 [Ispinesib] + C[C@@H](Oc1cc(-c2cnn(C3CCNCC3)c2)cnc1N)c1c(Cl)ccc(F)c1Cl [Crizotinib] (partner 1 µM)
Method in brief: as §1

Cell Line | relative viability (Ispinesib + Olaparib; first compound 0.001 µM) | relative viability (Ispinesib + Olaparib; first compound 0.003162 µM) | relative viability (Ispinesib + Olaparib; first compound 0.01 µM) | relative viability (Ispinesib + Olaparib; first compound 0.03162 µM) | relative viability (Ispinesib + Olaparib; first compound 0.1 µM) | relative viability (Linsitinib + Bortezomib; first compound 0.01 µM) | relative viability (Linsitinib + Bortezomib; first compound 0.03162 µM) | relative viability (Linsitinib + Bortezomib; first compound 0.1 µM) | relative viability (Linsitinib + Bortezomib; first compound 0.3162 µM) | relative viability (Linsitinib + Bortezomib; first compound 1 µM) | relative viability (Linsitinib + Pemetrexed; first compound 0.01 µM) | relative viability (Linsitinib + Pemetrexed; first compound 0.03162 µM) | relative viability (Linsitinib + Pemetrexed; first compound 0.1 µM) | relative viability (Linsitinib + Pemetrexed; first compound 0.3162 µM) | relative viability (Linsitinib + Pemetrexed; first compound 1 µM) | relative viability (Ispinesib + Crizotinib; first compound 0.001 µM) | relative viability (Ispinesib + Crizotinib; first compound 0.003162 µM) | relative viability (Ispinesib + Crizotinib; first compound 0.01 µM) | relative viability (Ispinesib + Crizotinib; first compound 0.03162 µM) | relative viability (Ispinesib + Crizotinib; first compound 0.1 µM)
NCI-H2023 | 0.543 | 0.553 | 0.511 | 0.271 | 0.232 | 0.876 | 0.724 | 1 | 0.239 | 0.602 | 0.257 | 0.134 | 0.238 | 0.0952 | 0.176 | 0.616 | 0.657 | 0.598 | 0.457 | 0.13
Calu-6 | 0.56 |  | 0.422 | 0.193 | 0.192 | 0.996 | 1.04 | 1.05 | 0.867 | 0.905 |  |  |  |  |  | 0.992 | 0.618 | 0.527 | 0.169 | 0.265
NCI-H522 | 0.634 | 0.585 | 0.779 | 0.571 | 0.555 |  |  |  |  |  | 0.831 | 0.839 | 1.01 | 0.652 | 0.839 |  |  |  |  | 
HOP-62 | 0.62 | 0.215 | 0.341 | 0.312 | 0.186 | 0.857 | 0.488 | 1.03 |  | 0.379 | 0.325 | 0.251 | 0.311 |  | 0.281 | 0.966 | 1.04 | 0.792 | 0.976 | 0.918
H3255 | 0.589 | 0.597 | 0.541 | 0.46 | 0.394 | 0.803 | 0.796 | 0.812 | 0.541 | 0.627 | 0.457 | 0.566 | 0.533 | 0.557 | 0.521 | 1.09 | 0.821 | 0.92 | 0.58 | 0.327
NCI-H1734 | 0.613 | 0.658 | 0.64 | 0.675 | 0.449 | 0.851 | 0.962 | 1.01 | 0.665 | 0.643 | 0.413 | 0.324 | 0.404 | 0.417 | 0.408 | 0.662 | 0.77 | 0.893 | 0.648 | 0.483
SK-MES-1 | 0.762 | 0.788 | 0.648 | 0.201 | 0.228 |  |  |  |  |  | 0.991 | 0.795 | 0.958 | 0.784 | 0.753 | 1.07 | 1 | 1.11 | 0.751 | 0.284
NCI-H1792 | 0.385 | 0.394 | 0.252 | 0.53 | 0.152 | 0.971 | 0.953 | 0.928 | 0.775 | 0.704 | 1.05 | 0.695 | 0.891 | 0.51 | 0.321 | 1.26 | 1.16 | 0.863 | 0.736 | 0.32
EKVX | 0.83 |  | 1.05 | 0.831 | 0.317 | 1.12 | 1.02 | 1.07 | 0.9 | 0.852 |  | 0.243 | 0.425 | 0.352 | 0.36 | 1.19 | 1.34 | 1.06 | 0.689 | 0.196
EPLC-272H | 0.776 | 0.781 | 0.769 | 0.308 | 0.155 | 0.882 | 1.11 | 1.06 |  | 0.857 | 0.366 | 0.193 | 0.325 | 0.244 | 0.32 | 1.06 | 0.842 | 1.23 | 0.883 | 0.805
LK-2 | 0.795 | 0.814 | 0.698 | 0.632 | 0.329 |  |  |  |  |  | 0.123 | 0.285 | 0.148 | 0.215 | 0.153 | 0.169 | 0.269 | 0.213 | 0.21 | 0.333
CAL-12T | 0.754 | 0.791 | 0.896 | 0.768 | 0.217 | 0.873 | 0.882 | 0.996 | 0.833 | 0.817 | 1.25 | 0.946 | 1.23 | 1.14 | 1.13 | 0.688 | 0.731 | 0.394 | 0.229 | 0.282
NCI-H322M | 0.804 | 0.81 | 0.855 | 0.786 | 0.549 | 1.24 | 1.12 | 1.44 | 0.922 | 1.19 | 0.612 | 0.605 | 0.582 | 0.59 | 0.523 | 1.03 | 0.918 | 0.976 | 0.747 | 0.973
NCI-H1650 | 0.953 | 0.743 | 0.82 | 0.701 | 0.195 | 0.208 | 0.202 | 0.184 | 0.182 | 0.223 | 0.301 | 0.279 | 0.379 | 0.334 | 0.308 | 0.91 | 1.05 | 0.769 | 0.223 | 0.325
NCI-H1648 | 1.04 | 1.07 | 0.751 | 0.889 | 0.0854 |  |  |  |  |  | 0.95 | 0.553 | 0.658 | 0.592 | 0.826 |  |  |  |  | 
SW 1573 | 0.541 | 0.421 | 0.447 | 0.142 | 0.185 | 1.18 | 1.19 | 1.1 | 0.797 | 0.811 | 0.912 | 0.676 | 0.921 | 0.828 | 0.732 | 0.948 | 0.66 | 1.03 | 0.724 | 0.296
NCI-H2405 | 0.992 | 0.942 | 0.801 | 0.853 | 0.556 | 0.592 | 0.929 | 0.949 | 0.676 | 0.921 | 1.08 | 1.09 | 1.06 | 0.787 | 0.762 | 0.846 | 0.859 | 0.919 | 0.835 | 0.406
LCLC-103H | 0.8 | 0.888 | 0.856 | 0.746 | 0.775 | 1.11 | 0.951 | 1.17 | 1.05 | 0.892 | 0.441 | 0.459 | 0.46 | 0.341 | 0.505 | 1.08 | 1.2 | 1.08 | 0.999 | 0.929
